The text below walks through data of patent US20150038707A1, “PROCESS FOR MAKING CGRP RECEPTOR ANTAGONISTS” (Merck Sharp & Dohme Corp., priority 2012, published 2015).

What all share (format): in vivo
Assay [1] has as its system female Aedes aegypti (Thailand strain) mosquitoes. Kind of assay: Spatial repellency assay on mosquitoes (Example 3). The conditions noted are these: netting treated at 0.0025-2.5 nmol/cm^2. The protocol: (§1) The four compounds of formula I described in Example 2 were tested for spatial repellency (directed movement away from the chemical source without the insect making physical contact with the treated surface) at low doses on female Aedes aegypti (Thailand strain) mosquitoes. The spatial repellency response was determined by use of the spatial repellency assay disclosed by Grieco et al. in “A New Classification System for the Actions of IRS Chemicals Traditionally Used for Malaria Control” in Plos One, Issue 8 (2007) (available at www.plosone.org) which is incorporated herein by reference for all relevant and consistent purposes. The assay used was a cylindrical assembly that included a treatment chamber at one end and a control chamber at the other end. The treatment chamber included a netting strip (nylon organdy) that was treated with the insecticide of interest at the relevant dose. The treatment chamber and control chamber were connected by a clear cylinder and were separated from the clear cylinder by butterfly valves. Twenty (20) mosquitoes were introduced into the clear central chamber and the butterfly valves were opened after 30 seconds. After 10 minutes, the valves were closed and the number of mosquitoes in each chamber was counted.
The compositions were applied to the net strips by the same methods and at the same concentrations as described in Example 2 above. […]

The test system of another assay is Ae. aegypti mosquitoes. Put plainly: Compound residual life: spatial repellency (Example 9). The protocol: as §1
The spatial repellency assay of Example 3 was used to determine the residual life of compound 1405 on Ae. aegypti mosquitoes. Compound 1405 (neat, suspended in acetone) was applied by pipette to the netting material and the netting material was maintained at room temperature. The assay was performed at 0, 24 and 48 hours.
Nets were treated and tested at times 0 hour, 24 hour and 48 hour. The nets were held at room temperature between tests. The spatial activity index (“SAI” which varies from −1 to 1 with zero (0) indicating no response) and spatial repellency (SR) were determined. SAI is the measure of the proportion of females in the control chamber over the treated chamber after correcting for the proportion of females in the control chamber.

The test system of the next assay is mosquitoes (Ae. aegypti). Kind of assay: Compound residual life: spatial repellency (Example 11). The following applies: 12 week test period. The protocol:
The four compounds of formula I described in Example 2 were tested for spatial repellency (directed movement away from the chemical source without the insect making physical contact with the treated surface) at low doses on female Aedes aegypti (Thailand strain) mosquitoes. The spatial repellency response was determined by use of the spatial repellency assay disclosed by Grieco et al. in “A New Classification System for the Actions of IRS Chemicals Traditionally Used for Malaria Control” in Plos One, Issue 8 (2007) (available at www.plosone.org) which is incorporated herein by reference for all relevant and consistent purposes. The assay used was a cylindrical assembly that included a treatment chamber at one end and a control chamber at the other end. The treatment chamber included a netting strip (nylon organdy) that was treated with the insecticide of interest at the relevant dose. The treatment chamber and control chamber were connected by a clear cylinder and were separated from the clear cylinder by butterfly valves. Twenty (20) mosquitoes were introduced into the clear central chamber and the butterfly valves were opened after 30 seconds. After 10 minutes, the valves were closed and the number of mosquitoes in each chamber was counted. […]

[2] abbreviates: Dose 2.5, Time 0 hr after net treatment.
[3] abbreviates: Dose 2.5, Time 24 hr after net treatment.
Where [4] appears, read: Dose 25, Time 0 hr after net treatment.
Setting [5] is: Dose 25, Time 24 hr after net treatment.
The mark [6] stands for this setting: Dose 25, Time 48 hr after net treatment.

As to `CC1(C)C(C=C(Cl)C(F)(F)F)C1C(=O)OCc1ccc(F)c(C(F)(F)F)c1F` (stereo not drawn) [Compound 1405], in assay [1], the “spatial repellency, dose compared with DDT (FIG. 2)” value is listed as “showed repellency at a lower dose than DDT”. The “SAI (SE) (spatial activity index, -1 to 1)” value with Ae. aegypti mosquitoes (setting [2]) is given as 0.5(0.1); in the assay on Ae. aegypti mosquitoes (setting [3]), 0.3(0.1); in the assay on Ae. aegypti mosquitoes (setting [4]), 0.3(0.1); with Ae. aegypti mosquitoes (setting [5]), 0.5(0.1); in the assay with Ae. aegypti mosquitoes (setting [6]) it was 0.4(0.1). Also, the “SR (spatial repellency)” value with Ae. aegypti mosquitoes (setting [2]) stood at 21.5; in the assay with Ae. aegypti mosquitoes (setting [3]), 18; with Ae. aegypti mosquitoes (setting [4]) it was 21.5; in the assay with Ae. aegypti mosquitoes (setting [5]) it was 22.5; in the assay with Ae. aegypti mosquitoes (setting [6]), 22.5.
Regarding `CC1(C)C(C=C(Cl)Cl)C1C(=O)OCc1ccc(F)c(C(F)(F)F)c1F` (stereo not drawn) [Compound 1406], in the assay with mosquitoes (Ae. aegypti), the “residual spatial repellent activity (in words)” value is recorded as “appeared to be the more residual of the two compounds tested”.
